Assay results taken from US20230416205A1, “COMPOUNDS, COMPOSITIONS, AND METHODS” (Denali Therapeutics Inc, priority 2020, published 2023).

System: NLRP3
Assay: IL-1β secretion assay in PMA-differentiated, LPS/nigericin-stimulated THP-1 cells (384-well, ELISA read-out)
Format: cell-based, human
Conditions: Homo sapiens, THP-1, Table 4; IL-1β secretion, LPS/nigericin-stimulated THP-1 cells; read-out: IC50
How it was run: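 Secreted IL-1β quantified by capture ELISA from supernatants of PMA-differentiated THP-1 cells (30K per well). Sequence: LPS 25 ng/mL priming 2 h, compound 1 h, nigericin 2 h; dose-responses normalized between high (LPS plus 5 μM nigericin) and low (LPS alone) controls.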

| SMILES | IC50 [µM] |
| --- | --- |
| O=C(CN1CC2(CC2)c2cc(Br)ccc2C1=O)NC1CCN(c2cccnn2)CC1 [Example 387, 2-(6-bromo-1-oxospiro[3H-isoquinoline-4,1′-cyclopropane]-2-yl)-N-(1-pyridazin-3-ylpiperidin-4-yl)acetamide] | 5.29 |
| Cc1c(C#N)cnc(NC(=O)CN2CC3(CC3)c3cc(Br)ccc3C2=O)c1F [Example 389, 2-(6-bromo-1-oxospiro[3H-isoquinoline-4,1′-cyclopropane]-2-yl)-N-(5-cyano-3-fluoro-4-methylpyridin-2-yl)acetamide] | 0.546 |
| Cc1nc(NC(=O)CN2CC3(CC3)c3cc(Br)ccc3C2=O)c(F)cc1C#N [Example 390, 2-(6-bromo-1-oxospiro[3H-isoquinoline-4,1′-cyclopropane]-2-yl)-N-(5-cyano-3-fluoro-6-methylpyridin-2-yl)acetamide] | 9.84 |
| COc1ncc(F)c(NC(=O)CN2CC3(CC3)c3cc(Br)ccc3C2=O)n1 [Example 391, 2-(6-bromo-1-oxospiro[3H-isoquinoline-4,1′-cyclopropane]-2-yl)-N-(5-fluoro-2-methoxypyrimidin-4-yl)acetamide] | 22.4 |
| N#Cc1cc(F)cnc1NC(=O)CN1CC2(CC2)c2cc(Br)ccc2C1=O [Example 392, 2-(6-bromo-1-oxospiro[3H-isoquinoline-4,1′-cyclopropane]-2-yl)-N-(3-cyano-5-fluoropyridin-2-yl)acetamide] | 5.7 |
| CCN1CCC12CC(NC(=O)CN1CC3(CC3)c3cc(Br)ccc3C1=O)C2 (centres unmarked) [Example 393, 2-(6-bromo-1-oxospiro[3H-isoquinoline-4,1′-cyclopropane]-2-yl)-N-(1-ethyl-1-azaspiro[3.3]heptan-6-yl)acetamide] | 7.89 |
| CC(C)(C)OC(=O)N1CCC12CC(NC(=O)CN1CC3(CC3)c3cc(Br)ccc3C1=O)C2 (centres unmarked) [Example 394, tert-butyl 6-[[2-(6-bromo-1-oxospiro[3H-isoquinoline-4,1′-cyclopropane]-2-yl)acetyl]amino]-1-azaspiro[3.3]heptane-1-carboxylate] | 5.21 |
| N#Cc1cnc(NC(=O)CN2CC3(CC3)c3cc(Br)ccc3C2=O)c(Cl)c1 [Example 395, 2-(6-bromo-1-oxospiro[3H-isoquinoline-4,1′-cyclopropane]-2-yl)-N-(3-chloro-5-cyanopyridin-2-yl)acetamide] | 1.38 |
| Cc1cnc(NC(=O)CN2CC3(CC3)c3cc(Br)ccc3C2=O)c(F)c1 [Example 396, 2-(6-bromo-1-oxospiro[3H-isoquinoline-4,1′-cyclopropane]-2-yl)-N-(3-fluoro-5-methylpyridin-2-yl)acetamide] | 1.6 |
| Cc1cc(C#N)cnc1NC(=O)CN1CC2(CC2)c2cc(Br)ccc2C1=O [Example 397, 2-(6-bromo-1-oxospiro[3H-isoquinoline-4,1′-cyclopropane]-2-yl)-N-(5-cyano-3-methylpyridin-2-yl)acetamide] | 2 |
| O=C(CN1CC2(CC2)c2cc(Br)ccc2C1=O)Nc1ccc2cnsc2c1 [Example 398, N-(1,2-benzothiazol-6-yl)-2-(6-bromo-1-oxospiro[3H-isoquinoline-4,1′-cyclopropane]-2-yl)acetamide] | 1.91 |
| Cc1cnc2ccc(NC(=O)CN3CC4(CC4)c4cc(Br)ccc4C3=O)nn12 [Example 399, 2-(6-bromo-1-oxospiro[3H-isoquinoline-4,1′-cyclopropane]-2-yl)-N-(3-methylimidazo[1,2-b]pyridazin-6-yl)acetamide] | 1.35 |
| Cc1cn2nc(NC(=O)CN3CC4(CC4)c4cc(Br)ccc4C3=O)ccc2n1 [Example 400, 2-(6-bromo-1-oxospiro[3H-isoquinoline-4,1′-cyclopropane]-2-yl)-N-(2-methylimidazo[1,2-b]pyridazin-6-yl)acetamide] | 0.612 |
| COc1ncnc(NC(=O)CN2CC3(CC3)c3cc(Br)ccc3C2=O)c1F [Example 401, 2-(6-bromo-1-oxospiro[3H-isoquinoline-4,1′-cyclopropane]-2-yl)-N-(5-fluoro-6-methoxypyrimidin-4-yl)acetamide] | 1.89 |
| Cc1c(NC(=O)CN2CC3(CC3)c3cc(Br)ccc3C2=O)nn2ccccc12 [Example 402, 2-(6-bromo-1-oxospiro[3H-isoquinoline-4,1′-cyclopropane]-2-yl)-N-(3-methylpyrazolo[1,5-a]pyridin-2-yl)acetamide] | 9.27 |
| O=C(CN1CC2(CC2)c2cc(Br)ccc2C1=O)Nc1nn2ccccc2c1F [Example 403, 2-(6-bromo-1-oxospiro[3H-isoquinoline-4,1′-cyclopropane]-2-yl)-N-(3-fluoropyrazolo[1,5-a]pyridin-2-yl)acetamide] | 2.32 |
| O=C(CN1CC2(CC2)c2cc([C@@]3(F)C[C@H]3C(F)(F)F)ccc2C1=O)Nc1ncc(F)cn1 [Example 404, N-(5-fluoropyrimidin-2-yl)-2-[6-[(1r,2r)-1-fluoro-2-(trifluoromethyl)cyclopropyl]-1-oxospiro[3H-isoquinoline-4,1′-cyclopropane]-2-yl]acetamide] | 3.89 |
| CC1(C)COC(NC(=O)CN2CC3(CC3)c3cc(Br)ccc3C2=O)=N1 [Example 405, 2-(6-bromo-1-oxospiro[3H-isoquinoline-4,1′-cyclopropane]-2-yl)-N-(4,4-dimethyl-5H-1,3-oxazol-2-yl)acetamide] | 18 |

| SMILES | IC50 [µM] |
| --- | --- |
| O=C(CN1CC2(CC2)c2cc(Br)ccc2C1=O)NC1CCNC1=O (centres unmarked) [Example 406, 2-(6-bromo-1-oxospiro[3H-isoquinoline-4,1′-cyclopropane]-2-yl)-N-(2-oxopyrrolidin-3-yl)acetamide] | 16.1 |
| COc1cccnc1NC(=O)CN1CC2(CC2)c2cc(Br)ccc2C1=O [Example 407, 2-(6-bromo-1-oxospiro[3H-isoquinoline-4,1′-cyclopropane]-2-yl)-N-(3-methoxypyridin-2-yl)acetamide] | 4.28 |
| Cn1ncc2cnc(NC(=O)CN3CC4(CC4)c4cc(Br)ccc4C3=O)nc21 [Example 408, 2-(6-bromo-1-oxospiro[3H-isoquinoline-4,1′-cyclopropane]-2-yl)-N-(1-methylpyrazolo[3,4-d]pyrimidin-6-yl)acetamide] | 0.827 |
| O=C(CN1CC2(CC2)c2cc(Br)ccc2C1=O)Nc1ncc2ncsc2n1 [Example 409, 2-(6-bromo-1-oxospiro[3H-isoquinoline-4,1′-cyclopropane]-2-yl)-N-([1,3]thiazolo[5,4-d]pyrimidin-5-yl)acetamide] | 1.37 |
| O=C(CN1CC2(CC2)c2cc(Br)ccc2C1=O)Nc1ccnnc1 [Example 410, 2-(6-bromo-1-oxospiro[3H-isoquinoline-4,1′-cyclopropane]-2-yl)-N-pyridazin-4-ylacetamide] | 1.52 |
| O=C(CN1CC2(CC2)c2cc(Br)ccc2C1=O)Nc1cnccn1 [Example 411, 2-(6-bromo-1-oxospiro[3H-isoquinoline-4,1′-cyclopropane]-2-yl)-N-pyrazin-2-ylacetamide] | 1.34 |
| Cc1nc(NC(=O)CN2CC3(CC3)c3cc(Br)ccc3C2=O)nn1-c1ccccc1 [Example 412, 2-(6-bromo-1-oxospiro[3H-isoquinoline-4,1′-cyclopropane]-2-yl)-N-(5-methyl-1-phenyl-1,2,4-triazol-3-yl)acetamide] | 3.17 |
| O=C(CN1CC2(CC2)c2cc(Br)ccc2C1=O)Nc1ncn(-c2ccccc2)n1 [Example 413, 2-(6-bromo-1-oxospiro[3H-isoquinoline-4,1′-cyclopropane]-2-yl)-N-(1-phenyl-1,2,4-triazol-3-yl)acetamide] | 2.02 |
| N#Cc1ccc(NC(=O)CN2CC3(CC3)c3cc(Br)ccc3C2=O)cn1 [Example 414, 2-(6-bromo-1-oxospiro[3H-isoquinoline-4,1′-cyclopropane]-2-yl)-N-(6-cyanopyridin-3-yl)acetamide] | 1.26 |
| Cn1ccc(N2CCC(NC(=O)CN3CC4(CC4)c4cc(Br)ccc4C3=O)C2)n1 (centres unmarked) [Example 415, 2-(6-bromo-1-oxospiro[3H-isoquinoline-4,1′-cyclopropane]-2-yl)-N-[1-(1-methylpyrazol-3-yl)pyrrolidin-3-yl]acetamide] | 21 |
| Cn1cc(N2CCC(NC(=O)CN3CC4(CC4)c4cc(Br)ccc4C3=O)C2)cn1 (centres unmarked) [Example 416, 2-(6-bromo-1-oxospiro[3H-isoquinoline-4,1′-cyclopropane]-2-yl)-N-[1-(1-methylpyrazol-4-yl)pyrrolidin-3-yl]acetamide] | 20.8 |
| Cn1cc(N2CCCC(NC(=O)CN3CC4(CC4)c4cc(Br)ccc4C3=O)C2)cn1 (centres unmarked) [Example 417, 2-(6-bromo-1-oxospiro[3H-isoquinoline-4,1′-cyclopropane]-2-yl)-N-[1-(1-methylpyrazol-4-yl)piperidin-3-yl]acetamide] | 11.7 |
| COc1ccc(NC(=O)CN2CC3(CC3)c3cc(Br)ccc3C2=O)cn1 [Example 418, 2-(6-bromo-1-oxospiro[3H-isoquinoline-4,1′-cyclopropane]-2-yl)-N-(6-methoxypyridin-3-yl)acetamide] | 3.48 |
| O=C(CN1CC2(CC2)c2cc(Br)ccc2C1=O)Nc1ncc(C(F)F)cc1F [Example 419, 2-(6-bromo-1-oxospiro[3H-isoquinoline-4,1′-cyclopropane]-2-yl)-N-[5-(difluoromethyl)-3-fluoropyridin-2-yl]acetamide] | 0.769 |
| O=C(CN1CC2(CC2)c2cc(Br)ccc2C1=O)Nc1ccc(OC(F)F)nc1 [Example 420, 2-(6-bromo-1-oxospiro[3H-isoquinoline-4,1′-cyclopropane]-2-yl)-N-[6-(difluoromethoxy)pyridin-3-yl]acetamide] | 3.8 |
| CC(C)n1cnc(NC(=O)CN2CC3(CC3)c3cc(Br)ccc3C2=O)n1 [Example 421, 2-(6-bromo-1-oxospiro[3H-isoquinoline-4,1′-cyclopropane]-2-yl)-N-(1-propan-2-yl-1,2,4-triazol-3-yl)acetamide] | 2.73 |
| O=C(CN1CC2(CC2)c2cc(Br)ccc2C1=O)Nc1ncn(C2CC2)n1 [Example 422, 2-(6-bromo-1-oxospiro[3H-isoquinoline-4,1′-cyclopropane]-2-yl)-N-(1-cyclopropyl-1,2,4-triazol-3-yl)acetamide] | 3.08 |
